Data on six compounds can be found in ChEMBL document CHEMBL1148084, “Novel naphthoquinones from Conospermum incurvum” (J Nat Prod, 1994).

Molecules are shown by their SMILES. Calls of active or inactive are those of the source. The calls are words filed in the database; no cut-off is given here.

For this test, the system named is Human immunodeficiency virus 1. The test is described as follows: Antiviral activity against HIV1 in human cells by XTT assay. The test is classed as functional, organism-based. (In general: Tetrazolium dyes change colour on reduction, which living cells bring about.)
Regarding `COc1cc2c(cc1O)C(=O)C(C)=C(C)C2=O`, the outcome was inactive.

As to `COC1=C(C)C(=O)c2ccc3c(c2C1=O)C=C[C@@](C)(CCC=C(C)C)O3`, the outcome was inactive.

With `COC1=C(C)C(=O)c2ccc3c(c2C1=O)C=C[C@@](C)(CCCC(C)(C)O)O3`, the outcome was inactive.

As for `CC1=C(O)C(=O)c2c(ccc3c2C=C[C@@](C)(CCCC(C)(C)O)O3)C1=O`, the outcome was inactive.

On to `CC(C)=CCC/C(C)=C/Cc1c(O)ccc2c1C(=O)C(O)=C(C)C2=O`, for which the result was inactive.

Regarding `CC(C)=CCC[C@]1(C)C=Cc2c(ccc3c2C(=O)C(O)=C(C)C3=O)O1`, the outcome was inactive.
